Test results taken from patent US11738063B2, “Pharmaceutical composition for preventing or treating neurodegenerative diseases which includes flower extract of Daphne genkwa or fractions thereof as active ingredient” (KOREA RESEARCH INSTITUTE OF BIOSCIENCE AND BIOTECHNOLOGY, priority 2016, dated 2023).
Several values for one entry are separate records, joined by “and”; a condition that tells them apart may be missing. Equal entries are not always repeated.

How the values were obtained:
[1] = tested on: Salmonella typhimurium TA1535; assay: Bacterial reverse mutation assay, TA1535; settings: TA1535, S9+, 3.0 μg/plate, positive control
[2] = tested on: Salmonella typhimurium TA100; assay: Bacterial reverse mutation assay, TA100; settings: TA100, S9+, 2.0 μg/plate, positive control
[3] = tested on: Salmonella typhimurium TA98; assay: Bacterial reverse mutation assay, TA98; settings: TA98, S9+, 1.0 μg/plate, positive control
[4] = tested on: Salmonella typhimurium TA1537; assay: Bacterial reverse mutation assay, TA1537; settings: TA1537, S9+, 3.0 μg/plate, positive control
[5] = tested on: Escherichia coli WP2uvrA (pKM101); assay: Bacterial reverse mutation assay, WP2uvrA (pKM101); settings: S9+, 2.0 μg/plate, positive control

With `Nc1ccc2cc3ccccc3cc2c1` [2-Aminoanthracene (2-AA), 2-Aminoanthracene] the “Mean revertant colony count” value [1] was 101, the “Mean revertant colony count” value [2] was 592 and 838 and the “Mean revertant colony count” value [3] was 362 and 440. For the same compound, the “Mean revertant colony count” value [4] was 129 and 220 and the “Mean revertant colony count” value [5] was 462 and 545.
